Columns and labels:
[1] = system: Mycosphaerella graminicola (Septoria tritici); test: Mycosphaerella graminicola (Septoria tritici) / liquid culture (Septoria blotch); assay type: cell-based; conditions: Zymoseptoria tritici, growth inhibition determined photometrically 4-5 days after application, compared to untreated control
Procedure: Example B5: Mycosphaerella graminicola (Septoria tritici)/Liquid Culture (Septoria blotch) Conidia of the fungus from cryogenic storage are directly mixed into nutrient broth (PDB potato dextrose broth). After placing a (DMSO) solution of test compound into a microtiter plate (96-well format), the nutrient broth containing the fungal spores is added. The test plates are incubated at 24° C. and the inhibition of growth is determined photometrically 4-5 days after application. […] […]-19.

Row | Structure (SMILES) | melting point [°C] | inhibition of growth at 20 ppm [1] [%]
1 | CC1(C)CCC1NC(=O)c1nc(Nc2cnsc2)cc2cn[nH]c12 (stereo not shown) [Compound P-5, N-(2,2-dimethylcyclobutyl)-5-(isothiazol-4-ylamino)-1H-pyrazolo[3,4-c]pyridine-7-carboxamide] | 158 to 166 | ≥ 80
2 | Cn1cc(Nc2cc3cn[nH]c3c(C(=O)NC3CCC3(C)C)n2)cn1 (stereo not shown) [Compound P-4, N-(2,2-dimethylcyclobutyl)-5-[(1-methylpyrazol-4-yl)amino]-1H-pyrazolo[3,4-c]pyridine-7-carboxamide] | 158 to 166 | –
3 | O=C(NC1CCC12CCCC2)c1nc(Nc2cncc(F)c2)cc2cn[nH]c12 (stereo not shown) [Compound P-15, 5-[(5-fluoro-3-pyridyl)amino]-N-spiro[3.4]octan-3-yl-1H-pyrazolo[3,4-c]pyridine-7-carboxamide] | 185 to 195 | –
4 | CCCCCNC(=O)c1nc(Nc2cncc(F)c2)cc2cc[nH]c12 [Compound P-10, 5-[(5-fluoro-3-pyridyl)amino]-N-pentyl-1H-pyrrolo[2,3-c]pyridine-7-carboxamide] | 158 to 162 | –
5 | O=C(NC1CCC12CCCC2)c1nc(Nc2cc(F)nc(F)c2)cc2cc[nH]c12 (stereo not shown) [Compound P-18, 5-[(2,6-difluoro-4-pyridyl)amino]-N-spiro[3.4]octan-3-yl-1H-pyrrolo[2,3-c]pyridine-7-carboxamide] | 170 to 178 | ≥ 80
6 | CCCCCNC(=O)c1nc(Nc2cc(F)nc(F)c2)cc2cc[nH]c12 [Compound P-11, 5-[(2,6-difluoro-4-pyridyl)amino]-N-pentyl-1H-pyrrolo[2,3-c]pyridine-7-carboxamide] | 220 to 233 | –
7 | CCCCCNC(=O)c1nc(Nc2cncc(F)c2)cc2cn[nH]c12 [Compound P-13, 5-[(5-fluoro-3-pyridyl)amino]-N-pentyl-1H-pyrazolo[3,4-c]pyridine-7-carboxamide] | 155 to 168 | –
8 | O=C(NC1CCC12CCCC2)c1nc(Nc2cncc(F)c2)cc2cc[nH]c12 (stereo not shown) [Compound P-17, 5-[(5-fluoro-3-pyridyl)amino]-N-spiro[3.4]octan-3-yl-1H-pyrrolo[2,3-c]pyridine-7-carboxamide] | 180 to 191 | –
9 | CC1(C)CCC1NC(=O)c1nc(Nc2cc(F)cc(F)c2)cc2cc[nH]c12 (stereo not shown) [Compound P-1, 5-(3,5-difluoroanilino)-N-(2,2-dimethylcyclobutyl)-1H-pyrrolo[2,3-c]pyridine-7-carboxamide] | 65 to 89 | ≥ 80

Further lines, with some results ahead:

Row | melting point [°C] | Structure (SMILES) | inhibition of growth at 20 ppm [1] [%]
10 | 115 to 148 | CC1(C)CCC1NC(=O)c1nc(Nc2cc(F)nc(F)c2)cc2cc[nH]c12 (stereo not shown) [Compound P-2, 5-[(2,6-difluoro-4-pyridyl)amino]-N-(2,2-dimethylcyclobutyl)-1H-pyrrolo[2,3-c]pyridine-7-carboxamide] | ≥ 80
11 | 168 to 180 | O=C(NC1CCC12CCCC2)c1nc(Nc2cc(F)nc(F)c2)cc2cn[nH]c12 (stereo not shown) [Compound P-19, 5-[(2,6-difluoro-4-pyridyl)amino]-N-spiro[3.4]octan-3-yl-1H-pyrazolo[3,4-c]pyridine-7-carboxamide] | ≥ 80
12 | 167 to 176 | CC1(C)CCC1NC(=O)c1nc(Nc2cc(F)cc(F)c2)cc2cn[nH]c12 (stereo not shown) [Compound P-6, 5-(3,5-difluoroanilino)-N-(2,2-dimethylcyclobutyl)-1H-pyrazolo[3,4-c]pyridine-7-carboxamide] | ≥ 80
13 | 222 to 238 | CC1(C)CCC1NC(=O)c1nc(Nc2ccnc(F)c2)cc2cn[nH]c12 (stereo not shown) [Compound P-7, N-(2,2-dimethylcyclobutyl)-5-[(2-fluoro-4-pyridyl)amino]-1H-pyrazolo[3,4-c]pyridine-7-carboxamide] | ≥ 80
14 | 240 to 250 | CC1(C)CCC1NC(=O)c1nc(Nc2cc(F)nc(F)c2)cc2cn[nH]c12 (stereo not shown) [Compound P-8, 5-[(2,6-difluoro-4-pyridyl)amino]-N-(2,2-dimethylcyclobutyl)-1H-pyrazolo[3,4-c]pyridine-7-carboxamide] | ≥ 80
